Experimental data published in ChEMBL document CHEMBL1122274, “Inhibitors of glycolic acid oxidase. 4-substituted 2,4-dioxobutanoic acid derivatives” (J Med Chem, 1983).

Legend:
[1] = Acidic dissociation constant (pKa) determined in 50% aqueous ethanol; format: physicochemical
[2] = Acidic dissociation constant (pKa) determined in 50% aqueous ethanol;ND is defined as no-data.; format: physicochemical

`O=C(O)C(=O)CC(=O)c1ccc(-c2ccccc2)cc1` showed a pKa [1] of 3.34 and a pKa [2] of 3.34.
